In publication PMC11869522, “Competitive displacement of lipoprotein lipase from heparan sulfate is orchestrated by a disordered acidic cluster in GPIHBP1” (Journal of Lipid Research, 2025):

What was measured:
bLPL = experiment: Lipase activity assay, protection against spontaneous LPL inactivation; assay type: biochemical, bovine; details: 15 nM bLPL preincubated 20 min at 22°C with 1 μM synthetic peptide; Intralipid substrate, NEFA release 25 min; triplicates
Procedure: To determine lipase activity, 90 μl incubation mixture containing 166 mM NaCl, 28 U/ml heparin, 10% (w/v) fatty acid-free serum albumin, 250 mM Tris-HCl (pH 8.5), 0.16% intralipid, and 6% (v/v) chicken serum was mixed with 60 μl of sample buffer consisting of 150 mM NaCl, 0.1% (w/v) fatty acid-free serum albumin, 0.01% (v/v) Triton X-100, 10 mM HEPES (pH 7.4) and 15 nM bLPL. After 25 min incubation, non-esterified fatty acids (NEFA) released by LPL were quantified using the NEFA-HR kit according to manufacturer protocol (Wako Chemicals).
To address this question, we preincubated 15 nM purified bLPL for 20 min in the presence of 1 μM of synthetic peptides with different chain lengths and covering distinct regions of the first 33 residues in GPIHBP1 (supplemental Table S1). The residual bLPL activity was subsequently assessed by quantifying the release of non-esterified free fatty acids after a 25-min incubation with a lipid substrate emulsion (Intralipid) using the NEFA2-kit. […]
Fig. 2 LPL activity after incubation with synthetic peptides covering the acidic tail of GPIHBP^1–33 Purified bLPL (15 nM) was preincubated either alone or in the presence of 1 μM synthetic peptides or 150 nM GPIHBP1 for 20 min in 10 mM HEPES, 150 mM NaCl pH 7.4 at 22°C before LPL activity was assessed using Intralipid® as substrate. […]

[1] = test system: hLPL bound to immobilized heparan sulfate; experiment: GPIHBP1-mediated extraction of LPL from HSPGs (SPR, immobilized heparin dp4 fragments); assay type: binding, human; details: 12.5–200 nM GPIHBP1 proteins, 0.1–1.6 μM sulfated GPIHBP1^1–33, or GPIHBP1^34–131 with 1 μM sulfated GPIHBP1^1–33
Source text: To mimic electrostatic conditions found in the sub-endothelial spaces where surface-bound heparan-sulfate proteoglycans (HSPGs) are abundant, we designed a surrogate sensor surface using a streptavidin-coated CM5 sensor chip to capture high densities of biotinylated synthetic heparin dp4 fragments ([28], [29]). The reference surface was loaded with a neutral and non-sulfated fragment (M09 S00 from Iduron), while the active surface was loaded with a negatively charged fragment (M09 S08a from Iduron) containing N- and O-6-linked sulfations on each of the […] glucosamine residues in the DP4 fragment. Only the highly sulfated oligosaccharide bound LPL, and those interactions were transient with high off-rates. Despite the very transient nature of this binding, we created a stable reservoir of hLPL on the sensor surface by combining the fast kinetics of polyelectrolyte interactions with severe mass transport limitation—the latter phenomenon impedes LPL escape from the surface due to the fast rebinding that is favored by the high densities of immobilized heparin fragments (300 fmol/mm^2). For each experiment, 12.5 nM hLPL was loaded for 100 s at a flow rate of 20 μl/min in 10 mM Hepes (pH 7.4), 150 mM NaCl, 4 mM CaCl2, 10% (vol/vol) glycerol, 0.05% (vol/vol) surfactant P20, 1 mg/ml defatted BSA, […], and 0.05% (wt/vol) NaN3.
To compare the ability of GPIHBP1^1–131 and its charge variants to bind and extract hLPL from this dynamic reservoir, we injected twofold serial dilutions of 1.25–200 nM GPIHBP1^1–131; 1.25–200 nM GPIHBP1^Cluster1-neutral; GPIHBP1^Cluster2-neutral; 1.25–200 nM GPIHBP1^34–131; 0.1–1.6 μM GPIHBP1^1–33 with Tyr^18–SO4; or 1.25–200 nM GPIHBP1^34–131 in the presence of 1 μM sulfated GPIHBP1^1–33 for 250 s at 20 μl/min in 10 mM Hepes (pH 7.4), 150 mM NaCl, 4 mM CaCl2, 10% (vol/vol) glycerol, 0.05% (vol/vol) surfactant P20, 0.2 mg/ml fatty acid-free BSA, and 0.05% (wt/vol) NaN3. At the end of each cycle, two consecutive injections of 10 μl 3 M guanidinium chloride regenerated the chip.
GPIHBP1’s ability to displace LPL from its HSPG-bound state in the sub-endothelial spaces is essential for the trans-endothelial trafficking of LPL to the luminal surface of capillary cells ([29]). The importance of the acidic tail in this process is supported by solid evidence from surrogate in vitro models and in vivo studies in gene-edited mice ([28], [29]). It was therefore important to determine the relative impact of the two charge-clusters in GPIHBP1 on their ability to disrupt LPL•HSPG interactions. To gain this insight, we measured the ability of different GPIHBP1 charge variants to displace hLPL from a SPR sensor chip surface coupled with a high density of immobilized small heparin-like fragments ([28]). […]

## GPIHBP1^1–33: Synthetic peptide representing the N-terminal acidic tail of GPIHBP1, first 33 residues (QTQQEEEEEDEDHGPDDYDEEDEDEVEEEETNR; UniProt Q8IV16 21-53, looked up, fragment)
bLPL
  preserving bLPL activity against spontaneous inactivation: as efficient as 150 nM GPIHBP1^1–131
[1]
  competitive displacement of HSPG-bound hLPL (in words): neither GPIHBP1^34–131 nor GPIHBP1^1–33 alone, or in combination, induced any detachment of LPL
